This is an account of results in patent US7124068B2, “Crystal structure of a deacetylase and inhibitors thereof” (Sloan-Kettering Institute for Cancer Research, priority 1999, dated 2006).

One test relates to PLZF-RARα APL cells. Particulars: cited from earlier work.
The test system of another test is HDLP. Briefly: Histone deacetylase assay with [3H] acetyl-labeled histone substrate. The format is biochemical, Aquifex aeolicus. Particulars: in vitro.
In the next test the test system is lung tumors. Particulars: mice; cited from earlier work.
The test system of the next test is mammary tumors. Particulars: rats; cited from earlier work.

On to `CC(/C=C/C(=O)NO)=C\[C@@H](C)C(=O)c1ccc(N(C)C)cc1` [TSA, trichostatin A], for which the “responsiveness to retinoic acid-induced differentiation” value with PLZF-RARα APL cells is “enhances their responsiveness”. Further, the “inhibition of HDLP histone deacetylase activity” value in the test on HDLP is on record as “inhibited”.
Turning to suberoylanilide hydroxamic acid [SAHA], the “preventing the formation of lung tumors” value in the test on lung tumors is listed as “effective”. Besides, in the test on mammary tumors, the “preventing the formation of mammary tumors” value was “effective”.
